# Data: US20140058103A1, “Inhibitors of PI3K-Delta and Methods of Their Use and Manufacture” (Exelixis, Inc., priority 2010, published 2014)
# Target: PI3K delta (Homo sapiens, UniProt O00329)
# Experiment: Luciferase-coupled chemiluminescence kinase assay (ATP consumption, KinaseGlo)
# Type: biochemical
# Summary of the method: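 Compound, kinase and ATP (≤ KM) reacted 2 h at ambient temperature, then remaining ATP quantified with luciferase-luciferin (KinaseGlo) luminescence as percent consumed.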
# PI3K delta, sequence (O00329 whole entry): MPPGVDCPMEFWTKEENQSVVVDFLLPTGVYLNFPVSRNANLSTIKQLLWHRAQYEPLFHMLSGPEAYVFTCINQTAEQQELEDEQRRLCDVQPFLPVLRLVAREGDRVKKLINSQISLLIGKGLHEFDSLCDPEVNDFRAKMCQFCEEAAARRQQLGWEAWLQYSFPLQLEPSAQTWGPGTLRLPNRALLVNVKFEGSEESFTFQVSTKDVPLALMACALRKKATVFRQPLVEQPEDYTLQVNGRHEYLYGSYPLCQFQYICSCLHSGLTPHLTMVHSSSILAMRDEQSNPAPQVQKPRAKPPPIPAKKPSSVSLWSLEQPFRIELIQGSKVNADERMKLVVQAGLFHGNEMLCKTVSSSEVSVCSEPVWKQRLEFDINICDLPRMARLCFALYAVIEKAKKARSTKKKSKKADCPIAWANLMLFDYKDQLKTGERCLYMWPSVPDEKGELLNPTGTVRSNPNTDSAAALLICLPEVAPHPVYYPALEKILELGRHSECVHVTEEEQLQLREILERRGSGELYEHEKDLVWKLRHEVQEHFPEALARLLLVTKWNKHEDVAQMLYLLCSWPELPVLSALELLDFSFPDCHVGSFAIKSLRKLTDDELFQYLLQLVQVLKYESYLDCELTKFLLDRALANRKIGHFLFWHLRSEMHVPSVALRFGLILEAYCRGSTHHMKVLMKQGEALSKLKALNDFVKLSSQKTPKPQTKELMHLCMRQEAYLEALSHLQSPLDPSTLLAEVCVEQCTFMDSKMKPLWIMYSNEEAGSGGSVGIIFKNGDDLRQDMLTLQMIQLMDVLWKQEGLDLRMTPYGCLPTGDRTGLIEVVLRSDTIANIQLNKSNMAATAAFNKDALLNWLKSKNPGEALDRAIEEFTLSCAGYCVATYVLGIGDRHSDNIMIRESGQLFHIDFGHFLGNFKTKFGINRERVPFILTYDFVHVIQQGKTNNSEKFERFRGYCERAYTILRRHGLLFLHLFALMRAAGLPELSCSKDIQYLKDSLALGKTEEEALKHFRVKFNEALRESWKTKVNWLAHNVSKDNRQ
# PI3K delta, sequence (P27986 whole entry partner): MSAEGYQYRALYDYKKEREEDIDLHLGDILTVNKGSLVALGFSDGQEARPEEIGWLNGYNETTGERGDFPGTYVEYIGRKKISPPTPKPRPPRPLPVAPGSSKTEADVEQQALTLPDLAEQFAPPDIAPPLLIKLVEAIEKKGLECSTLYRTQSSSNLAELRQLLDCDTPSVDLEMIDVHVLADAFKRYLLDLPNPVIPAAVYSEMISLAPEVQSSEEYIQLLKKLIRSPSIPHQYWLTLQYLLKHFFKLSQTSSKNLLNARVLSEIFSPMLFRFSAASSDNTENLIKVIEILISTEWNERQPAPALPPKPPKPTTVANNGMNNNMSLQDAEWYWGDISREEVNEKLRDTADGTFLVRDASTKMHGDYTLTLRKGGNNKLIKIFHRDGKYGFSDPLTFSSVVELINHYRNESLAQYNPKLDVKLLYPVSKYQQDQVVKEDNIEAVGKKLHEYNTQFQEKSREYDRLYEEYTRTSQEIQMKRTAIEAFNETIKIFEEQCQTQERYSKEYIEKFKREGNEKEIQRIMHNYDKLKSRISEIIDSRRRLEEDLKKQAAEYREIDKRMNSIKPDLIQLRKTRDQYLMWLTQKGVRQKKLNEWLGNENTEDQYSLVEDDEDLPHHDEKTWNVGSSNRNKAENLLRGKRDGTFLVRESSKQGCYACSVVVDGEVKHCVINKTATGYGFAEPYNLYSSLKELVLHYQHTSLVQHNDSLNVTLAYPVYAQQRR
row,Compound,IC50 [nM]
1,"Cn1c(C(=O)N2CCC(F)(F)C2)nc2c(N3CCC(n4c(=O)[nH]c5ccccc54)CC3)ncnc21 [Compound 108, 1-(1-{8-[(3,3-difluoropyrrolidin-1-yl)carbonyl]-9-methyl-9H-purin-6-yl}piperidin-4-yl)-1,3-dihydro-2H-benzimidazol-2-one]",50 to 250
2,"Cn1c(C(=O)NCC2CC2)nc2c(N3CCC4(CC3)C(=O)Nc3c(Br)cccc34)ncnc21 [Compound 168, 6-(7-bromo-2-oxo-1,2-dihydro-1′H-spiro[indole-3,4′-piperidin]-1′-yl)-N-(cyclopropylmethyl)-9-methyl-9H-purine-8-carboxamide]",< 50
3,"Cn1c(-c2cccnn2)nc2c(N3CCC(n4c(=O)[nH]c5ncccc54)CC3)ncnc21 [Compound 335, 1-[1-(9-methyl-8-pyridazin-3-yl-9H-purin-6-yl)piperidin-4-yl]-1,3-dihydro-2H-imidazo[4,5-b]pyridin-2-one]",50 to 250
4,"CCCNC(=O)c1nc2c(N3CCC(n4c(=O)[nH]c5ccccc54)CC3)ncnc2n1CC [Compound 193, 9-ethyl-6-[4-(2-oxo-2,3-dihydro-1H-benzimidazol-1-yl)piperidin-1-yl]-N-propyl-9H-purine-8-carboxamide]",< 50
5,"Cn1c(C(=O)NCc2ccc(F)cc2F)nc2c(N3CCC4(CC3)C(=O)Nc3ccccc34)ncnc21 [Compound 33, N-[(2,4-difluorophenyl)methyl]-9-methyl-6-(2-oxo-1,2-dihydro-1′H-spiro[indole-3,4′-piperidin]-1′-yl)-9H-purine-8-carboxamide]",500 to 1500
6,"Cn1c(C(=O)N2CCC(F)(F)C2)nc2c(N3CCC4(CC3)C(=O)Nc3ccccc34)ncnc21 [Compound 106, 1′-{8-[(3,3-difluoropyrrolidin-1-yl)carbonyl]-9-methyl-9H-purin-6-yl}spiro[indole-3,4′-piperidin]-2(1H)-one]",50 to 250
7,"Cn1c(-c2ccc(N)nc2)nc2c(N3CCC(n4c(=O)[nH]c5ccccc54)CC3)ncnc21 [Compound 303, 1-{1-[8-(6-aminopyridin-3-yl)-9-methyl-9H-purin-6-yl]piperidin-4-yl}-1,3-dihydro-2H-benzimidazol-2-one]",< 50
8,"CCn1c(C(=O)NCC2CCC2)nc2c(N3CCC4(CC3)C(=O)Nc3ccccc34)ncnc21 [Compound 212, N-(cyclobutylmethyl)-9-ethyl-6-(2-oxo-1,2-dihydro-1′H-spiro[indole-3,4′-piperidin]-1′-yl)-9H-purine-8-carboxamide]",< 50
9,"Cn1cc(-c2nc3c(N4CCN(S(=O)(=O)c5cc(Cl)ccc5Cl)CC4)ncnc3n2C)cn1 [Compound 379, 6-{4-[(2,5-dichlorophenyl)sulfonyl]piperazin-1-yl)-9-methyl-8-(1-methyl-1H-pyrazol-4-yl)-9H-purine]",50 to 250
10,"CCn1c(-c2cnc(OC)nc2OC)nc2c(N3CCC(n4c(=O)[nH]c5ccccc54)CC3)ncnc21 [Compound 321, 1-(1-{8-[2,4-bis(methyloxy)pyrimidin-5-yl]-9-ethyl-9H-purin-6-yl}piperidin-4-yl)-1,3-dihydro-2H-benzimidazol-2-one]",500 to 1500
11,"O=C(NCC1CC1)c1nc2c(N3CCC4(CC3)C(=O)Nc3ccccc34)ncnc2n1C1CC1 [Compound 175, 9-cyclopropyl-N-(cyclopropylmethyl)-6-(2-oxo-1,2-dihydro-1′H-spiro[indole-3,4′-piperidin]-1′-yl)-9H-purine-8-carboxamide]",50 to 250
12,"Cn1c(C(F)(F)F)nc2c(N3CCC(n4c(=O)[nH]c5ccccc54)CC3)ncnc21 [Compound 134, 1-{1-[9-Methyl-8-(trifluoromethyl)-9H-purin-6-yl]piperidin-4-yl}-1,3-dihydro-2H-benzimidazol-2-one]",250 to 500
13,"CCCc1nnc(-c2nc3c(N4CCC5(CC4)C(=O)Nc4ccccc45)ncnc3n2C)o1 [Compound 177, 1′-[9-methyl-8-(5-propyl-1,3,4-oxadiazol-2-yl)-9H-purin-6-yl]spiro[indole-3,4′-piperidin]-2(1H)-one]",< 50
14,"Cn1cc(-c2nc3c(N4CC[C@H](c5ccccc5)[C@@H](O)C4)ncnc3n2C)cn1 [Compound 346, (3R,4R)-1-[9-methyl-8-(1-methyl-1H-pyrazol-4-yl)-9H-purin-6-yl]-4-phenylpiperidin-3-ol]",250 to 500
15,"Cn1c(C(=O)NCC2CC2)nc2c(N3CCC(n4c(=O)[nH]c5c(F)cccc54)CC3)ncnc21 [Compound 278, N-(cyclopropylmethyl)-6-[4-(4-fluoro-2-oxo-2,3-dihydro-1H-benzimidazol-1-yl)piperidin-1-yl]-9-methyl-9H-purine-8-carboxamide]",50 to 250
16,"Cn1c(C(=O)N2CC(F)(F)C2)nc2c(N3CCC4(CC3)C(=O)Nc3ccccc34)ncnc21 [Compound 103, 1′-{8-[(3,3-difluoroazetidin-1-yl)carbonyl]-9-methyl-9H-purin-6-yl}spiro[indole-3,4′-piperidin]-2(1H)-one]",50 to 250
17,"Cn1c(-c2cnn(CCO)c2)nc2c(N3CCC(n4c(=O)[nH]c5ccccc54)CC3)ncnc21 [Compound 178, 1-{1-(8-[1-(2-hydroxyethyl)-1H-pyrazol-4-yl]-9-methyl-9H-purin-6-yl}piperidin-4-yl)-1,3-dihydro-2H-benzimidazol-2-one]",50 to 250
18,"CCCn1cc(-c2nc3c(N4CCC5(CC4)C(=O)Nc4ccccc45)ncnc3n2CC)cn1 [Compound 251, 1′-[9-ethyl-8-(1-propyl-1H-pyrazol-4-yl)-9H-purin-6-yl]spiro[indole-3,4′-piperidin]-2(1H)-one]",< 50
19,"Cn1cncc1-c1nc2c(N3CCC(n4c(=O)[nH]c5ccccc54)CC3)ncnc2n1C [Compound 288, 1-{1-[9-methyl-8-(1-methyl-1H-imidazol-5-yl)-9H-purin-6-yl]piperidin-4-yl}-1,3-dihydro-2H-benzimidazol-2-one]",< 50
20,"Cn1cc(-c2nc3c(N4CCC(c5c[nH]c6ccccc56)CC4)ncnc3n2C)cn1 [Compound 351, 6-[4-(1H-indol-3-yl)piperidin-1-yl]-9-methyl-8-(1-methyl-1H-pyrazol-4-yl)-9H-purine]",250 to 500
21,"Cn1c(C(=O)NCCc2ccc(Cl)cc2)nc2c(N3CCC(n4c(=O)[nH]c5ccccc54)CC3)ncnc21 [Compound 63, N-[2-(4-chlorophenyl)ethyl]-9-methyl-6-[4-(2-oxo-2,3-dihydro-1H-benzimidazol-1-yl)piperidin-1-yl]-9H-purine-8-carboxamide]",500 to 1500
22,"CC(C)CNC(=O)c1nc2c(N3CCC4(CC3)C(=O)Nc3ccccc34)ncnc2n1C1CC1 [Compound 176, 9-cyclopropyl-N-(2-methylpropyl)-6-(2-oxo-1,2-dihydro-1′H-spiro[indole-3,4′-piperidin]-1′-yl)-9H-purine-8-carboxamide]",50 to 250
23,"COC(=O)[C@H]1CN(c2ncnc3c2nc(-c2cnn(C)c2)n3C)CC[C@H]1n1c(=O)[nH]c2ccccc21 [Compound 317, methyl (3S,4R)-1-[9-methyl-8-(1-methyl-1H-pyrazol-4-yl)-9H-purin-6-yl]-4-(2-oxo-2,3-dihydro-1H-benzimidazol-1-yl)piperidine-3-carboxylate]",500 to 1500
24,"CCn1c(C(=O)NCC(C)(C)O)nc2c(N3CCC(n4c(=O)[nH]c5ccccc54)CC3)ncnc21 [Compound 197, 9-ethyl-N-(2-hydroxy-2-methylpropyl)-6-[4-(2-oxo-2,3-dihydro-1H-benzimidazol-1-yl)piperidin-1-yl]-9H-purine-8-carboxamide]",< 50
